Results from patent publication US10646529B2, “Methods of obtaining natural products from the comestible fluids and methods of use” (BOARD OF TRUSTEES, RUTGERS, THE STATE UNIVERSITY OF NEW …, priority 2010, dated 2020).
Values belong to the compound of their own block, whether it stands above or below them.

What was measured:
Assay type in all cases: physicochemical
[1] = Sorption of 6-gingerol to full-fat soybean flour (HPLC-MS peak area); settings: 6-gingerol 9 μg/ml in water, full-fat soybean flour 30 g/L, 10 ml, 5 minutes
Protocol: 6-Gingerol (Sigma) was diluted in water to a concentration of 9 μg/ml. Full-fat soybean flour was added to the solution at a concentration of 30 g/L in a volume of 10 ml, mixed for 5 minutes and then centrifuged for 10 minutes at 4000 rpm. The supernatant was removed. Full-fat soybean flour was used as a control. Both the 6-gingerol solution before soybean flour treatment (i.e., plant juice) and that obtained after soybean flour treatment (i.e., plant liquor) were subjected to HPLC-MS; the injection volume for each sample was 10 μl.

[2] = Sorption of quercetin from grape juice by soybean flour (HPLC-MS); settings: 5 minutes, n=1; for % Quercetin Sorbed to SF / Concentration of Quercetin in Soybean flour: Concord grape juice 50 mL, soybean flour 30 g/L
Protocol: Soybean flour (30 g/L) was added to 50 mL of Concord grape juice and mixed at room temperature for five minutes. The juice was separated from the flour by centrifugation and then filtered through a 0.22 μm syringe filter. Untreated and soybean flour-treated juice samples (n=1) were processed as described in Example 8 and the quercetin content of untreated and soybean flour-treated samples was determined by HPLC-MS. Quercetin is a polyphenolic flavonoid compound. More specifically, it is a flavonol known in the art to have anti-inflammatory and antioxidant properties, and it is expected to be useful in treating cancer. Quercetin is also known to have endurance-promoting effects.

[3] = Sorption of resveratrol from grape juice by soybean flour (HPLC-MS)
Protocol: Soybean flour (30 g/L) was added to 50 mL of Concord grape juice and mixed at room temperature for five minutes. The juice was separated from the flour by centrifugation and then filtered through a 0.22 μm syringe filter. The resveratrol content of the untreated and flour-treated juice samples (n=1) was quantified by HPLC-MS according to a previously published method (Wang et al., J. Agric. Food Chem., 50:431-435, 2002, the disclosure of which is incorporated herein by reference in its entirety.).
The enriched substance was prepared as follows. Briefly, 2 ml of untreated or soybean flour-treated grape juice sample was mixed with 20 ml of methanol overnight and samples were then centrifuged at 2280 g for 5 minutes and the methanol portion was removed. The solid residue was washed with an additional 10 ml of methanol. Methanol supernatants were combined and evaporated using a rotary evaporator and the methanol-free samples were diluted in 10 ml of water for enzymatic hydrolysis with 30 mg β-D-glucosidase (2.3 units/mg). Each sample was then extracted four times with 7 ml of water-saturated ethyl acetate. Ethyl acetate extracts were combined and evaporated to dryness under vacuum using a rotary evaporator. Residues were dissolved in 1 ml of methanol/0.5% formic acid (7:3; v/v) for LC-MS analysis. Standards of resveratrol were prepared for LC-MS to generate standard curves and quantify the levels of each compound in juice samples.

[4] = Sorption of caffeine from green tea by defatted soybean flour (HPLC-MS); settings: green tea after SFDF 30 g/L, n=1
Protocol: The amount of caffeine in the untreated and soybean flour-treated tea samples (n=1) was also tested. […] Caffeine is a psychoactive stimulant that provides health benefits beyond the familiar increase in alertness and energy associated with coffee and tea consumption. The untreated and flour-treated tea samples described above were diluted 10 times in 0.1% acetic acid (1 μL glacial acetic acid and 1 mL water). Samples were subject to HPLC-MS and caffeine was quantified against a caffeine standard curve.

[5] = Sorption of sesquiterpene lactones from chicory root extract to defatted soybean flour (HPLC-MS peak area); settings: chicory root water extract 50 ml, defatted soybean flour 100 g/L, 5 minutes
Protocol: Dried chicory root was ground to a powder and 25 g was extracted in 500 ml of water for three hours in a 50° C. water bath with sonication. The water extract was separated from the plant material by filtration. Defatted soybean flour was mixed for 5 minutes with 50 ml of the chicory root extract at a concentration of 100 g/L followed by centrifugation (10 minutes, 15,000 rpm) and filtration of the supernatant. Untreated and soybean flour-treated chicory root extract were subjected to HPLC-MS; the injection volume for each sample was 10 μl. The amounts of the dihydrolactucin, lactucopicrin and dihydrolactucopicrin compounds present in the chicory root extract sorbed to the soybean flour were determined by calculating the percent decrease in peak area before and after treatment of the chicory extract with soybean flour.

[6] = Concord grape juice 50 mL, soybean flour 30 g/L, 5 minutes, n=1

Compound: CCCCC[C@H](O)CC(=O)CCc1ccc(O)c(OC)c1 [6-gingerol, 6-Gingerol]
% of 6-gingerol sorbed by soybean flour (percent decrease in peak area) [1]: 63%

Compound: O=c1c(O)c(-c2ccc(O)c(O)c2)oc2cc(O)cc(O)c12 [Quercetin]
Quercetin in Grape Juice ([2]; Concord grape juice 50 mL after soybean flour 30 g/L): 519 ng/mL
% Quercetin Sorbed to SF [2]: 74%
Concentration of Quercetin in Soybean flour [2]: 49.3 µg/g
% Quercetin Sorbed to SF ([2]; listed as quercetin): about 74%
Concentration of Quercetin in Soybean flour ([2]; listed as quercetin): approximately 49.3 μg/g

Compound: Oc1ccc(C=Cc2cc(O)cc(O)c2)cc1 [Resveratrol]
Bound resveratrol (amount) ([3]; 1.5 g soybean flour in 50 mL grape juice): 88.8 mg
Resveratrol in Grape Juice ([3]; Concord grape juice 50 mL after soybean flour 30 g/L, 5 minutes, n=1): 325 ng/mL
% Resveratrol Sorbed to SF [3, 6]: 85%
Concentration of Resveratrol in SF [3, 6]: 59.2 µg/g

Compound: Cn1c(=O)c2c(ncn2C)n(C)c1=O [caffeine]
Caffeine Concentration [4]: 383.1 mg/L

The next lines start with the values.

% of compound sorbed by soybean flour from chicory root extract (percent decrease in peak area) [5]: 80%
Compound: CC1=C2C(=O)C=C(CO)[C@@H]2[C@H]2OC(=O)[C@@H](C)[C@@H]2[C@H](OC(=O)Cc2ccc(O)cc2)C1 [dihydrolactucopicrin]

% of compound sorbed by soybean flour from chicory root extract (percent decrease in peak area) [5]: 100%
Compound: lactucopicrin
